Patent publication US6737383B1, “Herbicidal oxadiazolidines” (priority 1999, dated 2004)

Experiments:
[1] = tested on: corn; test: Test B pre/postemergence corn; type: in vivo, Zea mays
Procedure, shortened: (§1)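 Response is a visual 0-to-10 score relative to untreated plants, where 0 means no effect and 10 means complete control, taken twelve to sixteen days after application. Treatments went onto soil at planting and onto foliage of 1- to 4-leaf plants, using a surfactant-containing non-phytotoxic solvent.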

[2] = tested on: bedstraw; test: Test B pre/postemergence bedstraw; type: in vivo, Galium aparine
Procedure, shortened: as §1

[3] = tested on: smallflower flatsedge; test: Test B flood test smallflower flatsedge; type: in vivo, Cyperus difformis
Procedure, shortened: (§2)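 Plants were grown to the 2-leaf stage before treatment with test chemical, then held in a greenhouse for twelve to sixteen days. Injury was visually rated against untreated controls on a 0–10 scale, where 0 is no effect and 10 is complete control.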

[4] = tested on: rice; test: Test B flood test rice; type: in vivo, Oryza sativa
Procedure, shortened: as §2

[5] = tested on: sugar beet; test: Test B pre/postemergence sugar beet; type: in vivo, Beta vulgaris
Procedure, shortened: as §1

[6] = tested on: crabgrass; test: Test B pre/postemergence crabgrass; type: in vivo, Digitaria sanguinalis
Procedure, shortened: as §1

[7] = tested on: cocklebur; test: Test B pre/postemergence cocklebur; type: in vivo, Xanthium strumarium
Procedure, shortened: as §1

[8] = tested on: purple nutsedge; test: Test B pre/postemergence purple nutsedge; type: in vivo, Cyperus rotundus
Procedure, shortened: as §1

[9] = tested on: velvetleaf; test: Test B pre/postemergence velvetleaf; type: in vivo, Abutilon theophrasti
Procedure, shortened: as §1

[10] = tested on: blackgrass; test: Test B pre/postemergence blackgrass; type: in vivo, Alopecurus myosuroides
Procedure, shortened: as §1

[11] = tested on: surinam grass; test: Test B pre/postemergence surinam grass; type: in vivo, Brachiaria decumbens
Procedure, shortened: as §1

[12] = tested on: wheat; test: Test B pre/postemergence wheat; type: in vivo, Triticum aestivum
Procedure, shortened: as §1

[13] = tested on: wild oat; test: Test B pre/postemergence wild oat; type: in vivo, Avena fatua
Procedure, shortened: as §1

[14] = tested on: soybean; test: Test B pre/postemergence soybean; type: in vivo, Glycine max
Procedure, shortened: as §1

[15] = tested on: duck salad; test: Test B flood test duck salad; type: in vivo, Heteranthera limosa
Procedure, shortened: as §2

[16] = tested on: bamyardgrass; test: Test B flood test barnyardgrass; type: in vivo, Echinochloa crus-galli
Procedure, shortened: as §2

[17] = Postemergence, Rate 62 g/ha, scale of 0 to 10, 0 is no effect, 10 is complete control
[18] = Postemergence, Rate 125 g/ha, scale 0 to 10, 0 is no effect, 10 is complete control
[19] = Postemergence, Rate 500 g/ha, scale 0 to 10, 0 is no effect, 10 is complete control
[20] = Preemergence, Rate 62 g/ha, scale of 0 to 10 where 0 is no effect and 10 is complete control
[21] = Preemergence, Rate 125 g/ha, scale 0 to 10, 0 is no effect, 10 is complete control
[22] = Preemergence, Rate 500 g/ha, scale of 0 to 10 where 0 is no effect and 10 is complete control
[23] = Rate 250 g/ha, Postemergence, scale of 0 to 10 where 0 is no effect and 10 is complete control
[24] = Rate 62 g/ha, flood test species, Pre-emergence, visual evaluation after twelve to sixteen days
[25] = Rate 125 g/ha, under heading Pre-emergence, flood test species, visual evaluation after twelve to sixteen days
[26] = Rate 250 g/ha, Pre-emergence (flood test species), scale 0 to 10, 0 is no effect, 10 is complete control
[27] = Rate 500 g/ha, Pre-emergence section of Table B, 0 to 10 scale (0 no effect, 10 complete control)

CC(C)N(C(=O)n1oc(=O)n(CCC2OCCCO2)c1=O)c1ccc(Cl)cc1 [Compound 532]
2: Corn plant response rating [1, 17] | Plant response rating, Corn [1, 19] | Sugarbeets plant response rating [5, 21] | Sugarbeets plant response rating (0 to 10 scale) ([5]; Preemergence, Rate 250 g/ha) | Plant response rating, Cocklebur [7, 23] | Plant response rating, Velvetleaf [9, 19] | Plant response rating, Velvetleaf [9, 23] | Soybean plant response rating [14, 18]
4: Crabgrass plant response rating [6, 17] | Crabgrass plant response rating [6, 18] | Plant response rating, Cocklebur [7, 19] | Nutsedge plant response rating [8, 17] | Velvetleaf plant response rating [9, 22]
5: Plant response rating, Soybean [14, 19] | Plant response rating, Soybean [14, 23]
3: Sugarbeets plant response rating [5, 22]
9: Plant response rating, S. Flatsedge (0 to 10 scale, 0 is no effect, 10 is complete control) [3, 24] | S. Flatsedge plant response rating [3, 26] | S. Flatsedge plant response rating [3, 27] | Rice plant response rating [4, 26] | Plant response rating, Crabgrass [6, 19] | Plant response rating, Crabgrass [6, 20] | Crabgrass plant response rating [6, 21] | Ducksalad plant response rating [15, 26] | Ducksalad plant response rating [15, 27] | Barnyardgrass plant response rating [16, 26] | Barnyardgrass plant response rating [16, 27]
8: S. Flatsedge plant response rating (0 to 10 scale, 0 is no effect, 10 is complete control) [3, 25] | Rice plant response rating [4, 27] | Plant response rating, Ducksalad (0 to 10 scale, 0 is no effect, 10 is complete control) [15, 24] | Ducksalad plant response rating (0 to 10 scale, 0 is no effect, 10 is complete control) [15, 25]
7: Plant response rating, Crabgrass [6, 23]
0: Corn plant response rating [1, 18] | Plant response rating, Corn [1, 20] | Corn plant response rating [1, 21] | Corn plant response rating (0 to 10 scale) ([1]; Preemergence, Rate 250 g/ha) | Corn plant response rating [1, 22] | Plant response rating, Corn [1, 23] | Bedstraw plant response rating [2, 17] | Bedstraw plant response rating [2, 18] | Plant response rating, Bedstraw [2, 19] | Plant response rating, Bedstraw [2, 20] | Bedstraw plant response rating [2, 22] | Plant response rating, Bedstraw [2, 23] | Plant response rating, Rice (0 to 10 scale, 0 is no effect, 10 is complete control) [4, 24] | Sugarbeets plant response rating [5, 17] | Sugarbeets plant response rating [5, 18] | Plant response rating, Sugarbeets [5, 19] | Plant response rating, Sugarbeets [5, 20] | Plant response rating, Sugarbeets [5, 23] | Cocklebur plant response rating [7, 17] | Cocklebur plant response rating [7, 18] | Plant response rating, Cocklebur [7, 20] | Cocklebur plant response rating [7, 21] | Cocklebur plant response rating (0 to 10 scale) ([7]; Preemergence, Rate 250 g/ha) | Cocklebur plant response rating [7, 22] | Nutsedge plant response rating [8, 18] | Plant response rating, Nutsedge [8, 20] | Nutsedge plant response rating [8, 21] | Nutsedge plant response rating (0 to 10 scale) ([8]; Preemergence, Rate 250 g/ha) | Nutsedge plant response rating [8, 22] | Velvetleaf plant response rating [9, 17] | Velvetleaf plant response rating [9, 18] | Plant response rating, Velvetleaf [9, 20] | Velvetleaf plant response rating [9, 21] | Velvetleaf plant response rating (0 to 10 scale) ([9]; Preemergence, Rate 250 g/ha) | Blackgrass plant response rating [10, 17] | Blackgrass plant response rating [10, 18] | Plant response rating, Blackgrass [10, 19] | Plant response rating, Blackgrass [10, 20] | Blackgrass plant response rating [10, 21] | Blackgrass plant response rating (0 to 10 scale) ([10]; Preemergence, Rate 250 g/ha) | Blackgrass plant response rating [10, 22] | Plant response rating, Blackgrass [10, 23] | B. signalgrass plant response rating [11, 17] | B. signalgrass plant response rating [11, 18] | Plant response rating, B. signalgrass [11, 19] | Plant response rating, B. signalgrass [11, 20] | B. signalgrass plant response rating [11, 21] | B. signalgrass plant response rating (0 to 10 scale, 0 is no effect, 10 is complete control) ([11]; Preemergence, Rate 250 g/ha) | B. signalgrass plant response rating [11, 22] | Plant response rating, B. signalgrass [11, 23] | Wheat plant response rating [12, 17] | Wheat plant response rating [12, 18] | Plant response rating, Wheat [12, 19] | Plant response rating, Wheat [12, 20] | Wheat plant response rating [12, 21] | Wheat plant response rating (0 to 10 scale) ([12]; Preemergence, Rate 250 g/ha) | Wheat plant response rating [12, 22] | Plant response rating, Wheat [12, 23] | Wild oats plant response rating [13, 17] | Wild oats plant response rating [13, 18] | Plant response rating, Wild oats [13, 19] | Plant response rating, Wild oats [13, 20] | Wild oats plant response rating [13, 21] | Wild oats plant response rating (0 to 10 scale) ([13]; Preemergence, Rate 250 g/ha) | Wild oats plant response rating [13, 22] | Plant response rating, Wild oats [13, 23] | Soybean plant response rating [14, 17] | Plant response rating, Soybean [14, 20] | Soybean plant response rating [14, 21] | Soybean plant response rating (0 to 10 scale) ([14]; Preemergence, Rate 250 g/ha) | Soybean plant response rating [14, 22] | Plant response rating, Barnyardgrass (0 to 10 scale, 0 is no effect, 10 is complete control) [16, 24] | Barnyardgrass plant response rating (0 to 10 scale, 0 is no effect, 10 is complete control) [16, 25]
10: Crabgrass plant response rating (0 to 10 scale) ([6]; Preemergence, Rate 250 g/ha) | Crabgrass plant response rating [6, 22]
1: Rice plant response rating (0 to 10 scale, 0 is no effect, 10 is complete control) [4, 25]
